Earlier results as cited in US5681568A, “Device for delivery of substances and methods of use thereof” (Cambridge NeuroScience, Inc., priority 1994, dated 1997).

Key:
[1] = system: experimental cerebral ischemia; details: after experimental cerebral ischemia, rabbit
[2] = system: hypoxic/ischemic brain injury; details: rat
nerve regeneration = details: in vivo
[3] = in vivo
[4] = presence of heparin

Molecule: TGFβ1: Transforming growth factor β1
- effect on infarct size [1]: reduce infarct size
- effects in models of hypoxic/ischemic brain injury [2]: therapeutically relevant effects

Molecule: IGF-1: insulin-like growth factors (IGFs)
- effects in models of hypoxic/ischemic brain injury [2]: therapeutically relevant effects

Molecule: bFGF: Basic fibroblast growth factor
- effect on nerve regeneration (nerve regeneration): therapeutic relevant effect on nerve regeneration

Molecule: CSCC[C@@H]1NC(=O)[C@H](CC(C)C)NC(=O)[C@H](CCCNC(=N)N)NC(=O)[C@H](CO)NC(=O)[C@@H]2CSSC[C@@H]3NC(=O)[C@H](CO)NC(=O)CNC(=O)[C@H]([C@@H](C)O)NC(=O)[C@H](CSSC[C@H](N)C(=O)N[C@@H](CCCCN)C(=O)NCC(=O)N[C@@H](CCCCN)C(=O)NCC(=O)N[C@@H](C)C(=O)N[C@@H](CCCCN)C(=O)N2)NC(=O)[C@H](CSSC[C@@H](C(N)=O)NC(=O)[C@H](CCCCN)NC(=O)CNC(=O)[C@H](CO)NC(=O)[C@H](CCCNC(=N)N)NC3=O)NC(=O)[C@H](CC(=O)O)NC(=O)[C@H](Cc2ccc(O)cc2)NC1=O [SNX111]
- toxic side effects [3]: severe hypotension

Molecule: acidic FGF: member of the fibroblast growth factor (FGF) family known to associate with heparin
- effect of heparin on the factor's activity [4]: can potentiate the factor's activity
